Results from ChEMBL document CHEMBL4052696, “Varic acid analogues from fungus as PTP1B inhibitors: Biological evaluation and structure-activity relationships” (Bioorg Med Chem Lett, 2017).
Active and inactive are the calls of the source.

Columns and labels:
[1] = biological target: T1, Tyrosine-protein phosphatase non-receptor type 1 (Homo sapiens) (UniProt P18031); assay: Reversible inhibition of PTP1B (unknown origin) at 0.1 to 0.4 uM using p-nitrophenyl phosphate substrate incubated for 30 mins by Lineweaver-Burk double reciprocal plot
T1 sequence (whole entry): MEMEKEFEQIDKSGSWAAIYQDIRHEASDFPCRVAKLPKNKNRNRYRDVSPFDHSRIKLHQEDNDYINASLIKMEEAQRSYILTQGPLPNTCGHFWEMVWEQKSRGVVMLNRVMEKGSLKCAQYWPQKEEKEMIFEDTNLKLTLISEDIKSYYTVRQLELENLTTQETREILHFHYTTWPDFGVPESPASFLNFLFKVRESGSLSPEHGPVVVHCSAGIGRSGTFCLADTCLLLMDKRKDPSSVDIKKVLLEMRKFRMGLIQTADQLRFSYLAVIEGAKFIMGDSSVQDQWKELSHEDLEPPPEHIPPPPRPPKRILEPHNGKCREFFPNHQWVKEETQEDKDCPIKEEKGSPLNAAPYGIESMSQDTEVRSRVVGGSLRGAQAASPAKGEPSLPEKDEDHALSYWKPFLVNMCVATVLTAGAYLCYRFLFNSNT

Rattus norvegicus [2] = assay: Increase in insulin-induced glucose lowering effect in normal Wistar rat at 10 mg/kg, ip dosed 30 mins before insulin injection and measured 30 mins post insulin injection by glucose-oxidase assay; type: functional, organism-based
Rattus norvegicus [3] = assay: Increase in insulin-induced glucose lowering effect in type 2 diabetic Wistar rat at 10 mg/kg, ip dosed 30 mins before insulin injection and measured 30 mins post insulin injection by glucose-oxidase assay; type: functional, organism-based

CCCc1cc(OC(=O)c2c(O)cc(OC(=O)c3c(O)cc(O)cc3CCC)cc2CCC)cc(O)c1C(=O)O
active: inhibition [1] | Activity (Rattus norvegicus [2]) | Activity (Rattus norvegicus [3])
